pIC50: −log10 of the molar value.
Tested on: N2a cells
Assay: MTT assay, cytotoxicity to N2a cells
Assay type: cell-based
Settings: for cell death: 0.5 nM; for pIC50: 72 hours, read-out: half-inhibitory concentration (IC50) on cell viability
Experimental: This experiment mainly used the MTT assay to detect the toxicity of Aβ aggregates to neurons. The specific procedure was as follows: N2a cells were cultured in DMEM medium containing 10% FBS and 1% penicillin/streptomycin. The cells in the culture dish were digested with trypsin, centrifuged, and resuspended in the medium, and then inoculated in a 96-well plate, with about 5,000 cells/100 µL medium per well. After 12 hours, the cells were treated with a series of concentration gradients of sApo*3F and sAβos, and the same volume of solvent was added to the cells as a control. After 72 hours, 25 µL 5 mg/mL MTT was added to each well. After further culture at 37 °C for 3 hours, the medium was aspirated and 150 µL DMSO was added. The absorbance at 570 nm and 630 nm was measured using an MD-M5 microplate reader. The average value of six replicate wells was used for each sample and control, and each experiment was repeated three times. Cell viability was calculated by dividing the absorbance (background corrected) of the sample well with the absorbance (background corrected) of the well added with solvent.

Substance: sApo*3F: Aβo*3F prepared in vitro: Aβ monomers incubated 2 days, immunoprecipitated with the antibody 3F
- cell death: 66%
- difference between the two IC50s (sAβos before immunoprecipitation vs sApo*3F) (MTT): 340 fold
- pIC50 (MTT): ~9.73

Substance: sAβos: Aβos prepared in vitro, 10 µM Aβ, 2-day incubation, before immunoprecipitation
- cell death: no substantial neurotoxic effect
- cytotoxicity / neurotoxicity (200 nM): 70%
- pIC50 (MTT): ~7.20

— patent EP4571315A1, “DIAGNOSTIC USE OF HIGHLY TOXIC AMYLOID OLIGOMER” (Shen Zhen Wisdom Biopharm Co., Ltd., priority 2022, dated 2024)
